Consider 21 molecules from ChEMBL document CHEMBL1153295, “Stereoselective synthesis of 15- and 16-substituted isosteviol derivatives and their cytotoxic activities” (Bioorg Med Chem Lett, 2009).

Active and inactive are the calls of the source. The calls are words filed in the database; no cut-off is given here.

The subject of the first test is B16-F10. Kind of test: Cytotoxicity against mouse B16F10 cells after 48 hrs by MTT assay. The following applies: B16-F10, 48 h. It is filed as functional, cell-based. A general note: Tetrazolium assays rely on reduction of a dye to a coloured formazan, in cell work by metabolically active cells.
As a reminder, the IC50 is the concentration at which inhibition is half-maximal. A high value points to weaker potency. `C=C[C@]12CC[C@H]3[C@@](C)(CCC[C@@]3(C)C(=O)OCC)[C@@H]1CC[C@](C)(C=N)C2` displayed a half-inhibitory concentration (IC50) of 27.5 µM. `CCOC(=O)[C@]1(C)CCC[C@@]2(C)[C@@H]3CC[C@@]4(C)C[C@]3(CC[C@@H]21)[C@@H]1CN(c2ccc([N+](=O)[O-])cc2)N=C14` displayed an IC50 of 21 µM. Molecule `CCOC(=O)[C@]1(C)CCC[C@@]2(C)[C@@H]3CC[C@@]4(C)C[C@]3(CC[C@@H]21)[C@H](CO)[C@H]4O` registered an IC50 of 68 µM. This IC50 is about 3.2-fold higher than that of the molecule before.

`CCOC(=O)[C@]1(C)CCC[C@@]2(C)[C@@H]3CC[C@@]4(C)C[C@]3(CC[C@@H]21)C[C@H]4O`: the midpoint of inhibition, the IC50, lay at 58 µM. This IC50 and that of the molecule before are within 1.5-fold of each other. The molecule `C=C[C@]12CC[C@H]3[C@@](C)(CCC[C@@]3(C)C(=O)OCC)[C@@H]1CC[C@](C)(CO)C2` displayed an IC50 of 24 µM. Against the preceding molecule, the IC50 is about 2.4-fold lower. `CCOC(=O)[C@]1(C)CCC[C@@]2(C)[C@@H]3CC[C@@]4(C)C[C@]3(CC[C@@H]21)[C@@H]1CON[C@@H]14`: the half-inhibitory concentration (IC50) is 15 µM.

Molecule `CCOC(=O)[C@]1(C)CCC[C@@]2(C)[C@@H]3CC[C@@]4(C)C[C@]3(CC[C@@H]21)[C@H](COC(=O)c1cccnc1)[C@H]4OC(=O)c1cccnc1` gave an IC50 of 22 µM. `CCOC(=O)[C@]1(C)CCC[C@@]2(C)[C@@H]3CC[C@@]4(C)C[C@]3(CC[C@@H]21)[C@H](COC(=O)c1cccnc1)[C@H]4O`: half-maximal inhibition (IC50) required 25 µM. The IC50 values of the last two molecules are within 1.5-fold of each other. The molecule `CCOC(=O)[C@]1(C)CCC[C@@]2(C)[C@@H]3CC[C@@]4(C)C[C@]3(CC[C@@H]21)c1cn(-c2ccccc2)nc14` displayed an IC50 of 19 µM.

The molecule `C=C[C@]12CC[C@H]3[C@@](C)(CCC[C@@]3(C)C(=O)OCC)[C@@H]1CC[C@](C)(O)C2` came in with a 50% inhibitory concentration (IC50) of 26 µM.

Another test relates to B16-F10. Kind of test: Cytotoxicity against mouse B16F10 cells at 100 uM after 48 hrs by MTT assay.
Details: not given
The test is classed as functional.
What is called inhibition is the share of the control response that was lost under treatment. In the case of `C[C@@]12CC[C@@H]3[C@@](CC[C@H]4[C@@]3(C)CCC[C@@]4(C)C(=O)O)(C[C@H]1O)C2`, the inhibition result is “inactive”. Turning to `C=CC(=O)O[C@@H]1C[C@]23CC[C@H]4[C@@](C)(CCC[C@@]4(C)C(=O)OCC)[C@@H]2CC[C@@]1(C)C3`, the inhibition entry is “inactive”. As for `C[C@]12CC[C@H]3[C@]4(C)CCC[C@@](C)(C(=O)O)[C@H]4CC[C@@]3(C1)[C@H](CO)[C@H]2O`, the inhibition entry was “inactive”. Regarding `C=C[C@]12CC[C@H]3[C@@](C)(CCC[C@@]3(C)C(=O)OCC)[C@@H]1CC[C@](C)(C(=O)O)C2`, the inhibition result is “inactive”. With `CCOC(=O)[C@]1(C)CCC[C@@]2(C)[C@@H]3CC[C@@]4(C)C[C@]3(CC[C@@H]21)[C@H](CO[N+](=O)[O-])[C@H]4O[N+](=O)[O-]`, the inhibition result is “inactive”. As to `CCOC(=O)[C@]1(C)CCC[C@@]2(C)[C@@H]3CC[C@@]4(C)C[C@]3(CC[C@@H]21)[C@@H]1CO[C@H]4O1`, the inhibition result is “inactive”. As to `C=C[C@]12CC[C@H]3[C@@](C)(CCC[C@@]3(C)C(=O)OCC)[C@@H]1CC[C@](C)(C=O)C2`, the inhibition entry is “inactive”.

For the molecule `C[C@@]12CC[C@@H]3[C@@](CC[C@H]4[C@@]3(C)CCC[C@@]4(C)C(=O)O)(CC1=O)C2`, the inhibition entry was “inactive”. In the case of `CCOC(=O)[C@]1(C)CCC[C@@]2(C)[C@@H]3CC[C@@]4(C)C[C@]3(CC[C@@H]21)CC4=O`, the inhibition result is “inactive”.

Turning to `CCOC(=O)[C@]1(C)CCC[C@@]2(C)[C@@H]3CC[C@@]4(C)C[C@]3(CC[C@@H]21)[C@@H]1CON(C)[C@@H]14`, the inhibition entry was “inactive”.

Staying with this test, now noted: B16-F10, 48 h.
In turn, `C=C[C@]12CC[C@H]3[C@@](C)(CCC[C@@]3(C)C(=O)OCC)[C@@H]1CC[C@](C)(CN)C2` showed an inhibition at 100 µM of 34.3%.
